LD50 and ED50 data for nine compounds are collected here from patent US4864021A, “5-fluorouracil derivatives” (Otsuka Pharmaceutical Co., Ltd., priority 1984, dated 1989).

A word on the LD50: it is the dose expected to kill half of the subjects tested.

Some results are limits rather than exact numbers.

Tested on in one data set: not listed separately
The data set can be described thus: Acute toxicity, oral, 14 days observation, Litchfield-Wilcoxon method. Particulars: mouse, in vivo, 5-week-old ICR male mice. As to the method: The compounds of the present invention prepared in Examples 2 and 54 were each orally administered to 5-week-old ICR male mice (8 mice in each group) to check the mice for the symptoms, change of weight and mortality by observing the mice for 14 consecutive days after the administration of the compounds. The LD50 value was determined from the mortality by the Litchfield-Wilcoxon method with the results shown below in Table 3.
As to `O=c1[nH]c(=O)n([C@H]2C[C@H](OCc3ccccc3)[C@@H](CO)O2)cc1F` [Example 2, 3'-O-benzyl-2'-deoxy-5-fluorouridine], the LD50 at 336 h is > 1000 mg/kg. Same read-out and setting: then `CC(=O)OC[C@H]1O[C@@H](n2cc(F)c(=O)[nH]c2=O)C[C@@H]1OCc1ccccc1` [Example 54, 3'-O-benzyl-5'-O-acetyl-2'-deoxy-5-fluorouridine], with > 1000 mg/kg.

For another data set, the system named is Sarcoma-180. The data set can be described thus: Antitumor test: Sarcoma-180 subcutaneously transplanted in ICR mice, oral once a day for 7 days, tumor weight on 10th day (50% tumor inhibition dose). Conditions: Mus musculus, 240 h, Table 1, Sarcoma-180 s.c. in ICR mice, once a day for 7 consecutive days, tumor weight on 10th day, read-out: ED50 (50% tumor inhibition dose, T/C is 0.5). Format: in vivo. As to the method:
(a) Sarcoma-180 subcultured in an ascites of ICR mice was diluted with a physiological saline solution and subcutaneously transplated into the backs of ICR mice in an amount of 2×10^7 each. Twenty-four hours after the transplantation, a test compound suspended in a 5% solution of gum arabic was orally administered to each of mice once a day for 7 consecutive days.
The solid tumor was extirpated from under the dorsal skin of mice on the 10th day after the transplantation to measure the weight of the tumor. There was determined the ratio (T/C) of the weight of tumor (T) cut out from the group of mice treated with the test compound to the weight of tumor (C) from the group of mice not treated therewith. The 50% tumor inhibition dose (ED50 value) in which T/C is 0.5 was determined from the dose-response curve of dosage and the ratio (T/C).
For the compound `O=c1[nH]c(=O)n([C@H]2C[C@H](OCc3ccccc3F)[C@@H](CO)O2)cc1F` [Example 2], the ED50 came out at 8 mg/kg. Same read-out and setting: then `O=c1[nH]c(=O)n([C@H]2C[C@H](OCc3ccccc3)[C@@H](CO)O2)cc1F` [drawing 480], with 8 mg/kg; and `CC(=O)OC[C@H]1O[C@@H](n2cc(F)c(=O)[nH]c2=O)C[C@@H]1OCc1ccccc1` [Example 54, 3'-O-benzyl-5'-O-acetyl-2'-deoxy-5-fluorouridine], with 15 mg/kg.

The data set is the same for the next values; noted with them: Mus musculus, 240 h, Table 2, same manner as in (a): Sarcoma-180 s.c. in ICR mice, once a day for 7 consecutive days, read-out: ED50 (50% tumor inhibition dose, T/C is 0.5).
Regarding `CCOCn1cc(F)c(=O)n(C(=O)c2cccc(C(=O)Oc3nc(OC(=O)c4ccccc4)ccc3C#N)c2)c1=O` [Example 227, 3-[3-(3-cyano-6-benzoyloxy-2-pyridyloxycarbonyl)benzoyl]-1-ethoxymethyl-5-fluorouracil], the ED50 came out at 5 mg/kg. For the compound `CC(=O)Oc1cc(OC(=O)c2cccc(C(=O)n3c(=O)c(F)cn([C@@H]4O[C@H](C)[C@@H](OC(C)=O)[C@H]4OC(C)=O)c3=O)c2)c(Cl)cn1` [Example 201, 3-[3-(2-acetoxy-5-chloro-4-pyridyloxycarbonyl)benzoyl]-5'-deoxy-2',3'-di-O-acetyl-5-fluorouridine], the ED50 turned out to be 12 mg/kg. Still for that read-out and setting: then `O=C(Oc1cc(OC(=O)c2ccccc2)c(Cl)cn1)c1cccc(C(=O)n2c(=O)c(F)cn([C@H]3C[C@H](OCc4ccccc4)[C@@H](COCc4ccccc4)O3)c2=O)c1` [Example 208, 3-[3-(4-benzoyloxy-5-chloro-2-pyridyloxycarbonyl)benzoyl]-2'-deoxy-3',5'-di-O-benzyl-5-fluorouridine], with 5 mg/kg; and `CC(=O)OC[C@H]1O[C@@H](n2cc(F)c(=O)n(C(=O)c3cccc(C(=O)Oc4cc(OC(=O)c5ccccc5)c(Cl)cn4)c3)c2=O)C[C@@H]1OC(C)=O` [Example 197, 3-[3-(4-benzoyloxy-5-chloro-2-pyridyloxycarbonyl)benzoyl]-2'-deoxy-3',5'-di-O-acetyl-5-fluorouridine], with 7 mg/kg; and `CC(=O)OC[C@H]1O[C@@H](n2cc(F)c(=O)n(C(=O)c3cccc(C(=O)Oc4cc(OC(=O)c5ccccc5)c(Cl)cn4)c3)c2=O)[C@H](OC(C)=O)[C@@H]1OC(C)=O` [Example 202, 3-[3-(4-benzoyloxy-5-chloro-2-pyridyloxycarbonyl)benzoyl]-5-fluoro-2',3',5'-tri-O-acetyluridine], with 22 mg/kg.
